row,melting point [°C],SMILES
1,196 to 198,COC(=O)c1cc2c3cc(C(C)=O)ccc3n(C)c2s1
2,228 to 230,COc1cc2nc(Cl)nc(-c3cccc([N+](=O)[O-])c3)c2cc1OC
3,163 to 166,O=C(O)CN(Cn1nnc2ccccc21)Cn1nnc2ccccc21
4,212 to 214,CN1C(=O)C2(COc3cc4c(cc32)OCCO4)c2c1cccc2-n1ccccc1=O (stereo not drawn)
5,182,CCS(=O)c1cccc(-c2nc(=O)c3ccccc3s2)n1 (stereo not drawn)
6,127 to 128,COc1ccc(-c2cc(C(=O)NCc3ccccn3)c(=O)n(CC3CCCC3)n2)cc1
7,74 to 77,O=C(c1ccccc1Cl)c1ccc(O)c(Cl)c1Cl
8,113 to 115,COc1cccc(COc2cc3c(cc2-c2cc(C=CC(=O)O)ccc2O)C(C)(C)CCC3(C)C)c1
9,96 to 97,O=C1NC(=O)C(CCCCCc2ccc(O)cc2)O1 (stereo not drawn)
10,223 to 225,Cn1c2cc(Cl)ccc2c(=O)c2c(Br)cccc21
11,118 to 120,COc1ccc(C2CCN(c3c(C)c(C)c4c(c3C)C(c3ccccc3)C(C)(C)O4)CC2)cc1OC (stereo not drawn)
12,255 to 258,CC(=O)Nc1ccc(Sc2c(NCc3ccccc3)cc(C(=O)O)cc2S(N)(=O)=O)cc1
13,168 to 169,CCCC1=C(C(=O)OCC)C(c2cc(F)ccc2F)c2c[nH]nc2N1 (stereo not drawn)
14,195 to 196,CCOC(=O)C1=C(c2ccc(-n3c(C)nc4cnccc43)cc2)NC(C)=C(C(=O)OCCOC)C1c1ccccc1Cl (stereo not drawn)
15,146,COc1ccc(CN(C)CCOc2ccc(NC(=O)c3cccc4c(=O)c5ccccc5[nH]c34)cc2)cc1
16,72 to 74,N#C/C=C\c1ccccc1C(=O)Cl
17,222 to 223,CC(=S)Nc1ccc(-c2nc3ccccc3s2)cc1
18,186,COc1cc(CN(C)CCCOc2ccc(NC(=O)c3cccc4c(=O)c5cccc(OC)c5[nH]c34)cc2)cc(OC)c1OC
19,240 to 242,CCn1c(=O)c2c(nc(/C=C/c3ccc(O)c(C)c3C)n2C)n(CC)c1=O
20,93 to 94,COc1ccc(-c2cccc(-c3nc(-c4ccc(C(F)(F)F)cc4)oc3C)c2)cc1

# Continued, compound first:
row,SMILES,melting point [°C]
1,COC(=O)C1=C(N)C(C)SC1 (stereo not drawn),60
2,c1ccc(Nc2ccc(-c3ccc(N(c4ccc(-c5ccccc5)cc4)c4ccc(-c5ccccc5)cc4)cc3)cc2)cc1,146
3,O=C(O)c1cc(Cl)c(Cl)c(Cl)n1,115 to 120
4,CC(C)(C)NC(=O)[C@@H]1C[C@@H]2CCCC[C@@H]2CN1C[C@@H](O)[C@H](Cc1ccccc1)NC(=O)[C@@H](Nc1nc(CO)cs1)C(C)(C)S(C)(=O)=O,126
5,O=C1CC(=O)CC(c2cc([N+](=O)[O-])ccc2F)C1,171 to 173
6,CCCCCCC(C)(C)c1cc(O)c(C2=C(CCO)CCC(C)C2)c(O)c1 (stereo not drawn),83 to 86
7,CCn1c(Cl)c(C=O)c(=O)n(CC)c1=NO,115 to 116
8,CCCCCCCCCCCOc1cc(C(=O)O)ccc1CO,82 to 83
9,COC(=O)c1cc(SC)cnc1C1=NC(C)(C(C)C)C(=O)N1 (stereo not drawn),107 to 108
10,NC(=O)c1cc([N+](=O)[O-])ccc1I,230 to 233
11,CCCN(CCC)C1Cc2cccc3c2n(c(=O)n3C)C1 (stereo not drawn),83 to 85
12,O=C1NC(=O)c2ccc(Br)cc2/C1=C/c1cc(Br)c(O)c(Br)c1,167 to 168
13,CC(C)n1cnc2c(Cl)nc(I)nc21,104
14,CC(=O)Nc1ccc(OC2SCC(OC(C)=O)C(OC(C)=O)C2OC(C)=O)cn1 (stereo not drawn),132 to 133
15,CO[C@@H]1O[C@H](C(N)=O)[C@H]2OC(C)(C)O[C@@H]12,134 to 136
16,CC(=O)NC1CCC(=O)N2CCCC(C(=O)NC(CC(=O)OC(C)(C)C)C(=O)COC(=O)c3c(Cl)cccc3Cl)N2C1=O (stereo not drawn),80 to 125
17,O=C(O)c1cn2c3c(cc(Cl)cc3c1=O)C(O)CC2 (stereo not drawn),> 250
18,CCOC(=O)C(=CN(C)C)C(=O)Nc1ccc(Br)cc1C,88 to 90

# From a melting point compilation (Tetko et al.; mined from patent text by program, amines drawn as free bases though some values may be those of a salt)
